Legend:
[1] = system: Escherichia coli (ATCC 8739); experiment: MIC determination with or without polymyxin B nonapeptide (PMBN); format: cell-based; conditions: PMBN alone up to 40 μg/ml
Protocol: Determination of Minimal Inhibitory Concentration (MIC) and Minimal Bactericidal Concentration (MBC) of Triafluocyl (Cayman Chemical, Item No. 15425) in presence of polymyxin B nonapeptide (PMBN) (Sigma-Aldrich Merk, Item No. P2076) against Escherichia coli (ATCC 8739). […] A single colony grown on a Luria-Bertani Agar (LB) plate was resuspended and cultured in LB medium overnight (O/N) in aerobic conditions (37° C. with 220 rpm shaking), next day a 1:50 inoculum in Mueller-Hinton broth (MHB) is incubated in aerobic conditions for 1 h30 (OD=0.08-0.1) and an inoculum corresponding to 3×10^6 colony forming unit (CFU)/ml, is incubated in presence or absence of different concentrations of Triafluocyl in 1% DMSO with or without 40 μg/ml Polymyxin B nonapeptide (PMBN) for 18 hr in aerobic conditions (37° C. with 220 rpm shaking). Growth of Escherichia coli in 7 conditions depicted in FIG. 11 is evaluated by reading the OD of each culture at 600 nm (OD600) in a spectrophotometer (Victor 3-Perkin Elmer). Determination of Minimal Inhibitory Concentration (MIC) and Minimal Bactericidal Concentration (MBC) of Fluometacyl in presence of polymyxin B nonapeptide (PMBN) (Sigma-Aldrich Merk, Item No. P2076) against Escherichia coli (ATCC 8739). The Minimal Inhibitory Concentration (MIC) represents the concentration, in a liquid culture, at which there is no visible growth of bacteria (no pellet or cloudiness), i.e. ΔOD at 600 nm equal to zero wherein ΔOD is the difference between the resulting optical density (OD) with the molecule together with PMBN, and the optical density (OD) of the blank (blank is the medium alone). A single colony grown on a Luria-Bertani Agar (LB) plate is resuspended and cultured in LB medium overnight (O/N) in aerobic conditions (37° C. with 220 rpm shaking), next day a 1:50 inoculum in Mueller-Hinton broth (MHB) is incubated in aerobic conditions for 1 h30 (OD=0.08-0.1) and an inoculum corresponding to 3×10^6 colony forming unit (CFU)/ml is incubated in presence or absence of different concentrations of Fluometacyl in 1% DMSO (vehicle) with or without 40 μg/ml Polymyxin B nonapeptide (PMBN) for 18 hr in aerobic conditions (37° C. with 220 rpm shaking). Growth of bacteria in the 7 individual cultures (FIG. 12A) is evaluated by reading the OD of each culture at 600 nm (OD600) in a spectrophotometer (Victor 3-Perkin Elmer).

[2] = system: S. aureus MRSA (ATCC BAA-1556); experiment: Killing curve (CFU counting); format: cell-based, Staphylococcus aureus; conditions: Triafluocyl 20 μg/ml
Protocol: S. aureus MRSA (ATCC BAA-1556) was grown overnight in brain heart infusion (BHI) medium, diluted 1:100 in fresh BHI, and incubated aerobically at 37° C. until bacteria growth reached a logarithmic phase (OD600=0.25-0.3).
Triafluocyl (Cayman Chemical, Item No. 15425) (20 μg/ml), Vancomycin (Sigma, 4 μg/ml or 10 μg/ml), Minocycline (Sigma, 8 μg/ml) or a solvent (DMSO) were added to 5 ml of S. aureus MRSA suspensions.
Bacterial growth for S. aureus MRSA was measured after different time intervals by counting the colony-forming units after plating appropriate culture dilutions on BHI agar plates.
S. aureus MRSA (ATCC BAA-1556) was grown overnight in BHI medium, then a 1:100 inoculum was diluted in fresh BHI and incubated aerobically at 37° C. until bacteria growth reached a logarithmic phase (OD600=0.25-0.3). The culture was split into two and challenged with 38 μM Fluometacyl (=18.2 μg/ml) or DMSO (Ctrl). Bacterial growth was measured after different time intervals by counting the colony-forming units after plating appropriate culture dilutions on BHI agar plates. (N=2)

Compound | inhibition of E. coli growth [1] | effect on S. aureus MRSA viable count after the first two hours ([2]; Vancomycin 10-fold MIC, Minocycline 8-fold MIC, FIG. 8A) | bactericidal effect over the 24 h-experiment compared with Triafluocyl ([2]; Vancomycin 4 or 10 μg/ml, Minocycline 8 μg/ml)
polymyxin B nonapeptide [PMBN, reference compound] | unable to inhibit E. coli growth | – | –
CN[C@H](CC(C)C)C(=O)N[C@H]1C(=O)N[C@@H](CC(N)=O)C(=O)N[C@H]2C(=O)N[C@H]3C(=O)N[C@H](C(=O)N[C@H](C(=O)O)c4cc(O)cc(O)c4-c4cc3ccc4O)[C@H](O)c3ccc(c(Cl)c3)Oc3cc2cc(c3O[C@@H]2O[C@H](CO)[C@@H](O)[C@H](O)[C@H]2O[C@H]2C[C@](C)(N)[C@H](O)[C@H](C)O2)Oc2ccc(cc2Cl)[C@H]1O [Vancomycin, reference compound] | – | ineffective | less efficient

Source: patent publication US10905691B2, “Use of triazolo(4,5-d)pyrimidine derivatives for prevention and treatment of bacterial infection” (Universite de Liege, priority 2016, dated 2021)
